{"source": "patent US20250154212A1", "about": "“METHOD OF DISRUPTING MEMORY AND LIPOPEPTIDE FOR USE IN SUCH METHOD” (The Research Foundation for The State University of New York, priority 2023, published 2025)", "key": {"[1]": {"system": "contextual fear/threat memory in PKMζ-null mice", "assay": "Contextual fear/threat conditioning, infusion into dorsal hippocampus, PKMζ-null mice", "format": "in vivo, mouse", "settings": "10 nmol in 0.5 μl per hemisphere in hippocampus, tested 24 h post-infusion", "experimental": "(§1) Mice were 8-10 weeks old at the time of cannulation and 9-11 weeks at the beginning of behavioral experiments. Mice were housed with cage-mates in plastic cages and provided with food and water ad libitum. Mice were maintained on a 12 h light/dark cycle (lights on at 7:00 am) and behavioral experiments began at 9:00 am.\n(§2) Mice were injected intraperitoneally (1 ml/100 g body weight) with an anesthetic cocktail containing ketamine (10 mg/ml) and xylazine (2 mg/ml). Mice were provided with analgesic treatment prior to surgery (carprofen; 5 mg/ml). Guide cannulae (Plastics One, Roanoke, VA) were implanted bilaterally in the dorsal hippocampus (from bregma: AP-2.1 mm; L+/−1.8 mm; DV-1.2 mm) and secured to the skull with three jeweler's screws and dental cement. Antisedan (0.66 ml/100 g body weight of 0.5 mg drug/ml solution) was given via i.p. injection after surgery to reverse the anesthesia.\nFor 7 days following surgery, mice were handled by freely exploring the experimenter's palm for 2-5 min. Mice were trained and tested in the same conditioning box (Coulbourn Habitest, Coulboum Instruments), which consisted of a grid floor and blank walls. […] Freezing behavior (cessation of all movement except breathing) during the 4 min session was recorded by an experimenter blind to the conditions. […]"}, "[2]": {"system": "auditory-cued fear/threat memory", "assay": "Auditory-cued fear/threat conditioning, infusion into basolateral amygdala, wild-type mice", "format": "in vivo, mouse", "settings": "6 nmol in 0.3 μL into each BLA, tested 1 day post-injection", "experimental": "as §1, with “9-11 weeks old at the” for “9-11 weeks at the”\nas §2, with “basolateral amygdala” for “dorsal hippocampus”, “AP-1.7” for “AP-2.1”, “L+/−3.0” for “L+/−1.8”, “DV-4.4” for “DV-1.2”\nFor 7 days following surgery, mice were handled by freely exploring the experimenter's palm for 2-5 min. Mice were habituated, trained, and tested in the same conditioning box (Coulbourn Habitest, Coulboum Instruments) with differing floors and walls to produce two different contexts (Context A and Context B). […] Freezing behavior (cessation of all movement except breathing) during the tone on Test 1 and Test 2 was scored by an experimenter blind to the conditions. […]"}}}
{"smiles": "O=S(=O)(O)c1cc(O)c2c(S(=O)(=O)O)cc(S(=O)(=O)O)cc2c1", "note": "[ζ-stat, 1-naphthol-3,6,8-trisulphonic acid]", "values": [{"measurement": "contextual fear/threat memory (% time freezing)", "setting": "[1]", "result": "has no effect"}, {"measurement": "auditory-cued fear/threat memory retention (% time freezing to tone)", "setting": "[2]", "result": "impairs memory retention"}, {"measurement": "auditory-cued fear/threat memory retention (% time freezing to tone)", "setting": "[2]; listed as z-stat", "result": "disrupts fear/threat memory retention"}]}
